According to patent publication US10392368B2, “Pyrazolo and triazolo bicyclic compounds as JAK kinase inhibitors” (THERAVANCE BIOPHARMA R&D IP, LLC, priority 2017, dated 2019):

Legend:
[1] = test system: IL-2 stimulated pSTAT5 in Tall-1 T cells; experiment: Cellular JAK3 potency assay: inhibition of IL-2 stimulated pSTAT5 in Tall-1 T cells; type: cell-based, human; conditions: for Tall-1 (pIC50): IL-2 stimulated pSTAT5 in Tall-1 T cells; for IC50: Homo sapiens, TALL-1, IL-2 stimulated pSTAT5 in Tall-1 T cells, read-out: Tall-1 (pIC50) (converted)
Experimental: The potency of test compounds for inhibition of interleukin-2 (IL-2) stimulated STAT5 phosphorylation was measured in the Tall-1 human T cell line (DSMZ) using AlphaLisa. Because IL-2 signals through JAK3, this assay provides a measure of JAK3 cellular potency.
Compounds were serially diluted in DMSO and dispensed acoustically to empty wells. Assay media (phenol red-free DMEM (Life Technologies) supplemented with 10% FBS (ATCC)) was dispensed (4 μL/well) and plates shaken at 900 rpm for 10 mins. Cells were seeded at 45,000 cells/well in assay media (4 μL/well), and incubated at 37° C., 5% CO2 for 1 hour, followed by the addition of IL-2 (R&D Systems; final concentration 300 ng/ml) in pre-warmed assay media (4 μL) for 30 minutes. After cytokine stimulation, cells were lysed with 6 ul of 3× AlphaLisa Lysis Buffer (PerkinElmer) containing 1× PhosStop and Complete tablets (Roche). The lysate was shaken at 900 rpm for 10 minutes at room temperature (RT). Phosphorylated STAT5 was measured via the pSTAT5 AlphaLisa kit (PerkinElmer). Freshly prepared acceptor bead mixture was dispensed onto lysate (5 μL) under green filtered <100 lux light. Plates were shaken at 900 rpm for 2 mins, briefly spun down, and incubated for 2 hrs at RT in the dark. Donor beads were dispensed (5 μL) under green filtered <100 lux light. Plates were shaken at 900 rpm for 2 minutes, briefly spun down, and incubated overnight at RT in the dark.
To determine the inhibitory potency of test compounds in response to IL-2, the average emission intensity of beads bound to pSTAT5 was measured in a human T cell line. IC50 values were determined from analysis of the inhibition curves of signal intensity versus compound concentration. Data are expressed as pIC50 (negative decadic logarithm IC50) values (mean±standard deviation).

[2] = target: T1, JAK3 (Homo sapiens, UniProt P52333); experiment: Biochemical JAK3 kinase assay (LanthaScreen); design: GST; purchased Life Technologies; conditions: for JAK3 (pKi)-JAK1 (pKi): selectivity: difference of pKi JAK3 and pKi JAK1; for Ki: read-out: JAK 3 (pKi) (converted)
T1 sequence (P52333 1-1124): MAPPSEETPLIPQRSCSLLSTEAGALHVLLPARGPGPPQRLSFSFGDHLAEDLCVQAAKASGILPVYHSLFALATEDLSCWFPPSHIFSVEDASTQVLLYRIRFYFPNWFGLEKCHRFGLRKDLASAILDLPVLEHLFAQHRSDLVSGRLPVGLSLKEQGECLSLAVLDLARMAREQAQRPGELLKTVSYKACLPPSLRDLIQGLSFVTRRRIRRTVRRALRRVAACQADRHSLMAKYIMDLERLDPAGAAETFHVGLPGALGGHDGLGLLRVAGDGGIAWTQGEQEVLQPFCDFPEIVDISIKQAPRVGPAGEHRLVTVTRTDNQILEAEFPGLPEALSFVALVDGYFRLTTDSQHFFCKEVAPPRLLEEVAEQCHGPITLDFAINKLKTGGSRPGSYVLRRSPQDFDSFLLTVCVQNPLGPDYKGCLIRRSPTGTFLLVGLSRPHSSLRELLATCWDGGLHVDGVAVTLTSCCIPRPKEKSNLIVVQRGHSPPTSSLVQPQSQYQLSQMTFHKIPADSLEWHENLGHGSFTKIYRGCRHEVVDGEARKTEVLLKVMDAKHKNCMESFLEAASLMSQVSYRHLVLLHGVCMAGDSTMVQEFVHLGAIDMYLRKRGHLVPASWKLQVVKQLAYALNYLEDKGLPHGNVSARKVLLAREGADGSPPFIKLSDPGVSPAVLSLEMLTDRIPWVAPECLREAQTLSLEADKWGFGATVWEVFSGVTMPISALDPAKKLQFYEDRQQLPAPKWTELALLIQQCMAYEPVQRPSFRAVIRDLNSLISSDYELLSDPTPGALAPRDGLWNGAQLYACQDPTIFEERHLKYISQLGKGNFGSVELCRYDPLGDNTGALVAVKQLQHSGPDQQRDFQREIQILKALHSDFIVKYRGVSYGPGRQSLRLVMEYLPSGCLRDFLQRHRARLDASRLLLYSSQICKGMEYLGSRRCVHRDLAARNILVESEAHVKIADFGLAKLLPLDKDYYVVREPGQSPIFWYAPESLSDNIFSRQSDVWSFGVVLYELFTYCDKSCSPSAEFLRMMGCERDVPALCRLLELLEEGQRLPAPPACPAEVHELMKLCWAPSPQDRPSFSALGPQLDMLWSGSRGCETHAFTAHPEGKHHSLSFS
Experimental: (§1) A panel of four LanthaScreen JAK biochemical assays (JAK1, 2, 3 and Tyk2) were carried in a common kinase reaction buffer (50 mM HEPES, pH 7.5, 0.01% Brij-35, 10 mM MgCl2, and 1 mM EGTA). Recombinant GST-tagged JAK enzymes and a GFP-tagged STAT1 peptide substrate were obtained from Life Technologies.
(§2) Serially or discretely diluted compounds were pre-incubated with each of the four JAK enzymes and the substrate in white 384-well microplates (Corning) at ambient temperature for 1 h. ATP was subsequently added to initiate the kinase reactions in 10 μL total volume, with 1% DMSO. […] Kinase reactions were allowed to proceed for 1 hour at ambient temperature before a 10 μL preparation of EDTA (10 mM final concentration) and Tb-anti-pSTAT1 (pTyr701) antibody (Life Technologies, 2 nM final concentration) in TR-FRET dilution buffer (Life Technologies) was added. The plates were allowed to incubate at ambient temperature for 1 h before being read on the EnVision reader (Perkin Elmer). Emission ratio signals (520 nm/495 nm) were recorded and utilized to calculate the percent inhibition values based on DMSO and background controls.
(§3) For dose-response analysis, percent inhibition data were plotted vs. compound concentrations, and IC50 values were determined from a 4-parameter robust fit model with the Prism software (GraphPad Software). Results were expressed as pIC50 (negative logarithm of IC50) and subsequently converted to pKi (negative logarithm of dissociation constant, Ki) using the Cheng-Prusoff equation.

[3] = target: T2, JAK1 (Homo sapiens, UniProt P23458); experiment: Biochemical JAK1 kinase assay (LanthaScreen); conditions: for Ki: read-out: JAK 1 (pKi) (converted)
T2 construct: GST; purchased Life Technologies
T2 sequence (P23458 whole entry): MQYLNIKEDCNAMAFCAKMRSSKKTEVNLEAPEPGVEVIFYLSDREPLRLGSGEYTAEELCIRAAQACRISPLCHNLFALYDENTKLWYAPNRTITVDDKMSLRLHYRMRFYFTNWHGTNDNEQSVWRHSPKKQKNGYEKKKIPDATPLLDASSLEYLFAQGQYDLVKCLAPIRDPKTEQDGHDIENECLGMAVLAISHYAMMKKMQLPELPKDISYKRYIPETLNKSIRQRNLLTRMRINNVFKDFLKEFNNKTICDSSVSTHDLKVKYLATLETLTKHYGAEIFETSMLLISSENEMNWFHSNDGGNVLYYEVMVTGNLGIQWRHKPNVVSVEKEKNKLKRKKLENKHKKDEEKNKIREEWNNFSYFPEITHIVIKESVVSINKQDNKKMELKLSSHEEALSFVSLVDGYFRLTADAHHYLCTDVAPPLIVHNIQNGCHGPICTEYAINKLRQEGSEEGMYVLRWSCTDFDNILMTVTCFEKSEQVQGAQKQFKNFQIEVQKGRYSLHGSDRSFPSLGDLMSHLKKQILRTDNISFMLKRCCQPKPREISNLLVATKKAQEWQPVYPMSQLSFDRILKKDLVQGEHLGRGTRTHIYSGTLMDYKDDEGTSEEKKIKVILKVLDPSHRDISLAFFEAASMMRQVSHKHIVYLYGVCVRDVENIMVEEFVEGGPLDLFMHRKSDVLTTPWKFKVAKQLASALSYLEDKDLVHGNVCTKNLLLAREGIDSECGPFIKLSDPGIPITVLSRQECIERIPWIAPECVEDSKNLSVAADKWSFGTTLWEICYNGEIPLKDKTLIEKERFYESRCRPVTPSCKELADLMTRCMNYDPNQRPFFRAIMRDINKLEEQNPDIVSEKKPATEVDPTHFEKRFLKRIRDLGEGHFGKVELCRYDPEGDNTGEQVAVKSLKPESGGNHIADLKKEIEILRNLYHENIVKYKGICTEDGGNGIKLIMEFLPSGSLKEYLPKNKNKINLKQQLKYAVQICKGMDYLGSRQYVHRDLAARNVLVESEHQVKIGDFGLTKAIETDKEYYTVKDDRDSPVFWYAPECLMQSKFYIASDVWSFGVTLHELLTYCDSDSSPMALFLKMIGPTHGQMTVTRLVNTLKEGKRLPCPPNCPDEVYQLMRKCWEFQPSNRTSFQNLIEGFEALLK
Experimental: as §1, §2, §3

Row | Structure (SMILES) | Tall-1 (pIC50) [1] | JAK 3 (pKi) [2] | JAK3 (pKi)-JAK1 (pKi) [2] | JAK 1 (pKi) [3] | IC50 [1] | Ki [2] | Ki [3]
1 | CN(C)C/C=C/C(=O)N1CC[C@H](COc2cc(-c3ccc(O)c(F)c3)cc3[nH]ncc23)C1 [Compound 2-4] | C (a pIC50 value between 6 and 6.7 (IC50 between 1 μM and 200 nM)) | B (a pKi value between 9 and 10 (Ki between 1 nM and 0.1 nM)) | B (a value of 2.3 to 3) | E (a pKi value of 7 or below (Ki of 100 nM or above)) |  |  | 
2 | C=CC(=O)N1CC[C@H](COc2cc(-c3ccc(O)cc3)nc3[nH]ncc23)C1 [Compound 2-6] | C (a pIC50 value between 6 and 6.7 (IC50 between 1 μM and 200 nM)) | A (a pKi value≥10 (Ki≤0.1 nM)) | A (a value of 3 or above) | E (a pKi value of 7 or below (Ki of 100 nM or above)) |  |  | 
3 | C=CC(=O)N1CC[C@H](COc2nc(-c3ccc(O)cc3)nc3[nH]ncc23)C1 [Compound 2-7] | B (a pIC50 value between 6.7 (included) and 7.5 (IC50 between 200 nM and 32 nM)) | B (a pKi value between 9 and 10 (Ki between 1 nM and 0.1 nM)) | A (a value of 3 or above) | E (a pKi value of 7 or below (Ki of 100 nM or above)) |  |  | 
4 | CN(C)C/C=C/C(=O)N1CC[C@H](COc2nc(-c3ccc(O)c(Cl)c3)cc3[nH]ncc23)C1 [Compound 2-9] | B (a pIC50 value between 6.7 (included) and 7.5 (IC50 between 200 nM and 32 nM)) | B (a pKi value between 9 and 10 (Ki between 1 nM and 0.1 nM)) | B (a value of 2.3 to 3) | E (a pKi value of 7 or below (Ki of 100 nM or above)) |  |  | 
5 | CN(C)C/C=C/C(=O)N1CC[C@H](COc2nc(-c3ccc(O)c(F)c3)cc3[nH]ncc23)C1 [Compound 2-13] | C (a pIC50 value between 6 and 6.7 (IC50 between 1 μM and 200 nM)) | B (a pKi value between 9 and 10 (Ki between 1 nM and 0.1 nM)) | B (a value of 2.3 to 3) | E (a pKi value of 7 or below (Ki of 100 nM or above)) |  |  | 
6 | C=CC(=O)N1CC[C@H](COc2nc(-c3ccc(O)c(Cl)c3)cc3[nH]ncc23)C1 [Compound 2-14] | A (a pIC50 value≥7.5 (IC50≤32 nM)) | A (a pKi value≥10 (Ki≤0.1 nM)) | A (a value of 3 or above) | E (a pKi value of 7 or below (Ki of 100 nM or above)) |  |  | 
7 | C=CC(=O)N1CC[C@H](COc2cc(-c3ccc(O)c(Cl)c3)nc3[nH]ncc23)C1 [Compound 2-16] | C (a pIC50 value between 6 and 6.7 (IC50 between 1 μM and 200 nM)) | B (a pKi value between 9 and 10 (Ki between 1 nM and 0.1 nM)) | A (a value of 3 or above) | E (a pKi value of 7 or below (Ki of 100 nM or above)) |  |  | 
8 | C=CC(=O)N1CC(F)(COc2cc(-c3ccc(O)cc3)cc3[nH]ncc23)C1 [Compound 3-6] |  |  | A (a value of 3 or above) |  | < 31.6 nM | < 0.1 nM | 10 to 100 nM
9 | CN(C)C/C=C/C(=O)N1CC(C)(COc2cc(-c3ccc(O)c(Cl)c3)cc3[nH]ncc23)C1 [Compound 3-9] |  |  | B (a value of 2.3 to 3) |  | 31.6 to 200 nM | 0.1 to 1 nM | > 100 nM
10 | C=CC(=O)N1CC(C)(COc2cc(-c3ccc(O)c(Cl)c3)cc3[nH]ncc23)C1 [Compound 3-10] | A (a pIC50 value≥7.5 (IC50≤32 nM)) | B (a pKi value between 9 and 10 (Ki between 1 nM and 0.1 nM)) | A (a value of 3 or above) | E (a pKi value of 7 or below (Ki of 100 nM or above)) |  |  | 
11 | C=CC(=O)N1CC(C)(COc2cc(-c3ccc(O)c(F)c3)cc3[nH]ncc23)C1 [Compound 3-12] |  |  | B (a value of 2.3 to 3) |  | 31.6 to 200 nM | 0.1 to 1 nM | > 100 nM
12 | C=CC(=O)N1CC(CC)(COc2cc(-c3ccc(O)cc3)cc3[nH]ncc23)C1 [Compound 3-14] | B (a pIC50 value between 6.7 (included) and 7.5 (IC50 between 200 nM and 32 nM)) | B (a pKi value between 9 and 10 (Ki between 1 nM and 0.1 nM)) | A (a value of 3 or above) | E (a pKi value of 7 or below (Ki of 100 nM or above)) |  |  | 
13 | C=CC(=O)N1CC(CC)(COc2cc(-c3ccc(O)c(Cl)c3)cc3[nH]ncc23)C1 [Compound 3-16] | B (a pIC50 value between 6.7 (included) and 7.5 (IC50 between 200 nM and 32 nM)) | A (a pKi value≥10 (Ki≤0.1 nM)) | A (a value of 3 or above) | E (a pKi value of 7 or below (Ki of 100 nM or above)) |  |  | 
14 | C=CC(=O)N1CC(CC)(COc2cc(-c3ccc(O)c(F)c3)cc3[nH]ncc23)C1 [Compound 3-18] | B (a pIC50 value between 6.7 (included) and 7.5 (IC50 between 200 nM and 32 nM)) | A (a pKi value≥10 (Ki≤0.1 nM)) | A (a value of 3 or above) | E (a pKi value of 7 or below (Ki of 100 nM or above)) |  |  | 
15 | C=CC(=O)N1CC(C(C)(C)Oc2cc(-c3ccc(O)cc3)cc3[nH]ncc23)C1 [Compound 3-25] | B (a pIC50 value between 6.7 (included) and 7.5 (IC50 between 200 nM and 32 nM)) | C (a pKi value between 8 and 9 (Ki between 10 nM and 1 nM)) | B (a value of 2.3 to 3) | E (a pKi value of 7 or below (Ki of 100 nM or above)) |  |  | 
16 | C=CC(=O)N1CC(C(C)(C)Oc2cc(-c3ccc(O)c(Cl)c3)cc3[nH]ncc23)C1 [Compound 3-26] | B (a pIC50 value between 6.7 (included) and 7.5 (IC50 between 200 nM and 32 nM)) | B (a pKi value between 9 and 10 (Ki between 1 nM and 0.1 nM)) | A (a value of 3 or above) | E (a pKi value of 7 or below (Ki of 100 nM or above)) |  |  | 
